Laboratory results taken from US20140377265A1, “ANTICOAGULANT ANTIDOTES” (BOEHRINGER INGELHEIM INTERNATIONAL GMBH, priority 2011, published 2014).

Experiments:
[1] = tested on: activated partial thromboplastin time; conditions: cited from earlier work
[2] = tested on: thrombin clotting time in human plasma; assay: Thrombin clotting time assay, dabigatran standard curve in human plasma; format: biochemical
Description: Briefly human plasma is obtained by taking whole blood into 3.13% sodium citrate. This is then centrifuged to obtain platelet free plasma and transferred to a separate tube and frozen until required on the day of the assay. Plasma is thawed at 37° C. on the day of the assay.
The thrombin clotting time is performed as follows. First thrombin is diluted to manufacturer's specification (3 IU/mL thrombin) in the buffer provided (Dade Behring Test kit) and prewarmed to 37° C. It is used within 2 hrs of being prepared. All assays were performed on a commercially available CL4 clotting machine (Behnk Electronics, Norderstadt, Germany). Fifty μL of plasma is pipetted into provided cuvettes with a magnetic stirrer and allowed to stir for 2 min in the well preheated to 37° C. in the CL4 machine. At this point 100 μL of the thrombin solution is added and the time required for the plasma sample to clot is recorded automatically by the CL4.

SMILES	prolongation of the activated partial thromboplastin time compared with dabigatran [1]	thrombin clotting time ([2]; 200 nM dabigatran preincubated with human plasma) [s]	elevation in clotting time over baseline ([2]; 200 nM dabigatran, human plasma) [fold]	increase in clotting time over baseline ([2]; 500 nM dabigatran, human plasma) [fold]
Cn1c(CNc2ccc(C(=N)N)cc2)nc2cc(C(=O)N(CCC(=O)OC3OC(C(=O)O)C(O)C(O)C3O)c3ccccn3)ccc21 (stereo not shown) [1-O-acylglucuronide]	equipotent prolongation			
Cn1c(CNc2ccc(C(=N)N)cc2)nc2cc(C(=O)N(CCC(=O)O)c3ccccn3)ccc21 [dabigatran, N-[2-(4-Amidinophenylaminomethyl)-1-methyl-1H-benzimidazol-5-ylcarbonyl]-N-(2-pyridyl)-beta-alanine]		51	~5	~10
